Data published in patent US9832999B1, “Bicyclic compounds as pest control agents” (BAYER CROPSCIENCE AKTIENGESELLSCHAFT, priority 2014, dated 2017).

Each molecule was assayed on Musca domestica (assay: Musca domestica test). Conditions: application rate 100 ppm; after 2 days; adult houseflies; 100% = all flies killed.
Assay type: in vivo
Experimental: • Solvent: dimethyl sulfoxide
To produce a suitable preparation of active compound, 10 mg of active compound are mixed with 0.5 ml of dimethyl sulfoxide, and the concentrate is diluted with water to the desired concentration.
Vessels containing a sponge treated with sugar solution and the active compound formulation of the desired concentration are populated with 10 adult houseflies (Musca domestica).
After 2 days, the kill in % is determined. 100% means that all of the flies have been killed; 0% means that none of the flies have been killed.
In the case of `CNC(=O)c1cc2cn(-c3cnccn3)nc2cn1` [Compound 14], the “efficacy (kill)” value is reported as 80%.

What follows are molecules tested on Myzus persicae (assay: Myzus persicae - spray test). Conditions: foliar, 144 h, application rate 500 g/ha, after 6 days, Chinese cabbage leaf discs, all stages of green peach aphid, 100% = all aphids killed, read-out: efficacy.
Assay type: in vivo
Experimental: To produce further test concentrations, the formulation is diluted with emulsifier-containing water.
For `CON(C)C(=O)c1cc2cn(-c3cccnc3)nc2cn1` [Compound 11], the pest or weed control at 500 g/ha was 90%. With `CNC(=O)c1cc2cn(-c3cnccn3)nc2cn1` [Compound 14] the pest or weed control at 500 g/ha was 90%. For `CNC(=O)c1cc2cn(-c3cncc(F)c3)nc2cn1` [Compound 19], the pest or weed control at 500 g/ha was 90%. For `CN(C)C(=O)c1cc2cn(-c3cncc(F)c3)nc2cn1` [Compound 20], the pest or weed control at 500 g/ha was 90%. In the case of `CON(C)C(=O)c1cc2cn(-c3cncc(F)c3)nc2cn1` [Compound 26], the pest or weed control at 500 g/ha is reported as 90%. For `O=C(NC1CC1)c1cc2cn(-c3cccnc3)nc2cn1` [Compound 29], the pest or weed control at 500 g/ha was 90%. Work on `CCNC(=O)c1cc2cn(-c3cccnc3)nc2cn1` [Compound 31] yielded a pest or weed control at 500 g/ha of 90%. `O=C(NCC(F)F)c1cc2cn(-c3cccnc3)nc2cn1` [Compound 36] gave a pest or weed control at 500 g/ha of 90%.
